Where two headings read alike, the source gives them in different places.
Assays:
[1] = tested on: T47D cells; assay: Cellular growth inhibition assay for T47D cells (CellTiter-Glo, 72 hours); type: cell-based, human; settings: 72 hours treatment
In short: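 Cells are plated at 3000/well and allowed 24 h before treatment. Test compound in medium containing 0.5% DMSO is then added, with DMSO-only wells as negative control, and plates are incubated 72 h at 37 °C. ATP luminescence (CellTiter-Glo 2.0) is then fitted to four parameters to derive GI50.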

[2] = tested on: T-Rex 293 cell line SC3 cells having increased expression of androgen receptor protein due to exposure to doxycycline; assay: Cellular growth inhibition assay, T-Rex 293 SC3 cells with doxycycline (CellTiter-Glo, 72 hours); type: cell-based; settings: T-Rex 293 SC3 cells with increased androgen receptor expression due to doxycycline (10 ng/mL)
In short: (§1)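 Growth inhibition is measured in an inducible AR-expressing T-Rex 293 clone, SC3, cultured with or without 10 ng/mL doxycycline in hormone-depleted medium. Test compounds are applied for 72 hours. GI50 values derive from CellTiter-Glo 2.0 signal fitted by four-parameter regression.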

[3] = tested on: T-Rex 293 cell line SC3 cells lacking increased expression of androgen receptor protein; assay: Cellular growth inhibition assay, T-Rex 293 SC3 cells without doxycycline (CellTiter-Glo, 72 hours); type: cell-based; settings: T-Rex 293 cell line SC3 cells not exposed to doxycycline (lacking increased androgen receptor expression)
In short: as §1

[4] = tested on: VCaP cells; assay: Cellular growth inhibition assay for VCaP cells (CellTiter-Glo, 72 hours); type: cell-based, human
In short: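 Luminescent viability signal after 72 h of compound exposure gave GI50 values by four-parameter nonlinear regression. Compounds were added in 0.5% DMSO to cells plated 24 h earlier at 5000/well in DMEM containing 10% FBS.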

| GI50 ([1]; Homo sapiens, T47D, 72 h) [nM] | GI50 ([4]; Homo sapiens, VCaP, 72 h) [nM] | GI50 [4] [nM] | GI50 [1] [nM] | SMILES | GI50 ([2]; 72 h) [nM] | GI50 ([3]; 72 h) [nM] | GI50 [2] [nM] | GI50 [3] [nM] |
| --- | --- | --- | --- | --- | --- | --- | --- | --- |
| < 500 | < 500 |  |  | Cc1sc2c(c1C)C(c1ccc(CC[C@@H]3CC[C@@]4(CCCN(c5ccc(C(=O)N[C@H]6CC[C@H](Oc7ccc(C#N)c(Cl)c7)CC6)nn5)C4)C3)cc1)=N[C@H](Cc1ncco1)c1nnc(C)n1-2 [I-216] | < 500 | < 500 |  |  |
| > 3000 | 1500 to 3000 |  |  | Cc1sc2c(c1C)C(c1ccc(O[C@H]3CCCN(c4ccc(C(=O)N[C@H]5CC[C@H](Oc6ccc(C#N)c(Cl)c6)CC5)nn4)C3)cc1)=N[C@@H](Cc1ncco1)c1nnc(C)n1-2 [I-217] | < 500 | < 500 |  |  |
| 500 to 1500 | < 500 |  |  | Cc1sc2c(c1C)C(c1ccc(OC[C@@H]3CCCN(c4ccc(C(=O)N[C@H]5CC[C@H](Oc6ccc(C#N)c(Cl)c6)CC5)nn4)C3)cc1)=N[C@@H](Cc1ncco1)c1nnc(C)n1-2 [I-218] | < 500 | < 500 |  |  |
| 1500 to 3000 | 500 to 1500 |  |  | Cc1sc2c(c1C)C(c1ccc(OC[C@H]3CCCN(c4ccc(C(=O)N[C@H]5CC[C@H](Oc6ccc(C#N)c(Cl)c6)CC5)nn4)C3)cc1)=N[C@@H](Cc1ncco1)c1nnc(C)n1-2 [I-219] | < 500 | 1500 to 3000 |  |  |
| < 500 | < 500 |  |  | Cc1sc2c(c1C)C(c1ccc(CCN3CCOC4(CCN(c5ccc(C(=O)N[C@H]6CC[C@H](Oc7ccc(C#N)c(Cl)c7)CC6)nn5)CC4)C3)cc1)=N[C@@H](Cc1ncco1)c1nnc(C)n1-2 [I-222] | < 500 | 500 to 1500 |  |  |
| 500 to 1500 | < 500 |  |  | Cc1sc2c(c1C)C(c1ccc(OC3CC4(CCN(c5ccc(C(=O)N[C@H]6CC[C@H](Oc7ccc(C#N)c(Cl)c7)CC6)nn5)CC4)C3)nc1)=N[C@@H](Cc1ncco1)c1nnc(C)n1-2 [I-223] | < 500 | 500 to 1500 |  |  |
| < 500 | < 500 |  |  | Cc1sc2c(c1C)C(c1ccc(O[C@@H]3CCCN(c4ccc(C(=O)N[C@H]5CC[C@H](Oc6ccc(C#N)c(Cl)c6)CC5)nn4)C3)cc1)=N[C@@H](Cc1ncco1)c1nnc(C)n1-2 [I-224] | < 500 | > 3000 |  |  |
| < 500 | < 500 |  |  | Cc1sc2c(c1C)C(c1ccc(C3CCC(N4CCCN(c5ccc(C(=O)N[C@H]6CC[C@H](Oc7ccc(C#N)c(Cl)c7)CC6)nn5)CC4)CC3)cc1)=N[C@H](Cc1ncco1)c1nnc(C)n1-2 (stereo partly drawn) [I-225] | < 500 | < 500 |  |  |
| > 3000 | < 500 |  |  | Cc1sc2c(c1C)C(c1ccc(C#CC3CC4(C3)CN(c3ccc(C(=O)N[C@H]5CC[C@H](Oc6ccc(C#N)c(Cl)c6)CC5)nn3)C4)cc1)=N[C@H](Cc1ncco1)c1nnc(C)n1-2 [I-227] | < 500 | > 3000 |  |  |
| 1500 to 3000 | 500 to 1500 |  |  | Cc1sc2c(c1C)C(c1ccc(CNC(=O)[C@H]3CCCN(c4ccc(C(=O)N[C@H]5CC[C@H](Oc6ccc(C#N)c(Cl)c6)CC5)nn4)C3)cc1)=N[C@@H](Cc1ncco1)c1nnc(C)n1-2 [I-229] | < 500 | 500 to 1500 |  |  |
| 1500 to 3000 | 500 to 1500 |  |  | Cc1sc2c(c1C)C(c1ccc(CNC(=O)[C@@H]3CCCN(c4ccc(C(=O)N[C@H]5CC[C@H](Oc6ccc(C#N)c(Cl)c6)CC5)nn4)C3)cc1)=N[C@@H](Cc1ncco1)c1nnc(C)n1-2 [I-230] | < 500 | 500 to 1500 |  |  |
| < 500 | < 500 |  |  | Cc1sc2c(c1C)C(c1ccc(C#C[C@H]3C[C@]4(CCCN(c5ccc(C(=O)N[C@H]6CC[C@H](Oc7ccc(C#N)c(Cl)c7)CC6)nn5)C4)C3)cc1)=N[C@@H](Cc1ncco1)c1nnc(C)n1-2 [I-234] | < 500 | < 500 |  |  |
| < 500 | < 500 |  |  | Cc1sc2c(c1C)C(c1ccc(C#C[C@H]3C[C@@]4(CCCN(c5ccc(C(=O)N[C@H]6CC[C@H](Oc7ccc(C#N)c(Cl)c7)CC6)nn5)C4)C3)cc1)=N[C@@H](Cc1ncco1)c1nnc(C)n1-2 [I-235] | < 500 | < 500 |  |  |
| > 3000 | > 3000 |  |  | Cc1sc2c(c1C)C(c1ccc([C@H]3CC[C@H](N4CCCN(c5ccc(C(=O)N[C@H]6CC[C@H](Oc7ccc(C#N)c(Cl)c7)CC6)nn5)CC4)CC3)cc1)=N[C@@H](Cc1ncco1)c1nnc(C)n1-2 [I-236] | < 500 | > 3000 |  |  |
| < 500 | < 500 |  |  | Cc1sc2c(c1C)C(c1ccc(CN3CCN(C(=O)c4ccc(C(=O)N[C@H]5CC[C@H](Oc6ccc(C#N)c(Cl)c6)CC5)nn4)CC3)cc1)=N[C@@H](Cc1ncco1)c1nnc(C)n1-2 [I-242] | < 500 | < 500 |  |  |
| > 3000 | > 3000 |  |  | Cc1sc2c(c1C)C(c1ccc([C@H]3CC[C@@H](N4CCCN(c5ccc(C(=O)N[C@H]6CC[C@H](Oc7ccc(C#N)c(Cl)c7)CC6)nn5)CC4)CC3)cc1)=N[C@@H](Cc1ncco1)c1nnc(C)n1-2 [I-244] | < 500 | > 3000 |  |  |

Second part, the compound before the results:

| SMILES | GI50 ([1]; Homo sapiens, T47D, 72 h) [nM] | GI50 ([4]; Homo sapiens, VCaP, 72 h) [nM] | GI50 [4] [nM] | GI50 [1] [nM] | GI50 ([2]; 72 h) [nM] | GI50 ([3]; 72 h) [nM] | GI50 [2] [nM] | GI50 [3] [nM] |
| --- | --- | --- | --- | --- | --- | --- | --- | --- |
| Cc1sc2c(c1C)C(c1ccc(O[C@H]3C[C@@]4(CCCN(c5ccc(C(=O)N[C@H]6CC[C@H](Oc7ccc(C#N)c(Cl)c7)CC6)nn5)C4)C3)nc1)=N[C@@H](Cc1ncco1)c1nnc(C)n1-2 [I-220] | 500 to 1500 | 500 to 1500 |  |  | < 500 | > 3000 |  |  |
| Cc1sc2c(c1C)C(c1ccc(O[C@H]3C[C@@]4(CCCN(c5ccc(C(=O)N[C@H]6CC[C@H](Oc7ccc(C#N)c(Cl)c7)CC6)nn5)C4)C3)nc1)=N[C@H](Cc1ncco1)c1nnc(C)n1-2 [I-221] | > 3000 | > 3000 |  |  | < 500 | > 3000 |  |  |
| Cc1sc2c(c1C)C(c1ccc(OC3CC4(CCN(c5ccc(C(=O)N[C@H]6CC[C@H](Oc7ccc(C#N)c(Cl)c7)CC6)nn5)CC4)C3)cc1)=N[C@@](C)(C(C)c1ncco1)c1nnc(C)n1-2 (stereo partly drawn) [I-226] | 500 to 1500 | > 3000 |  |  | < 500 | > 3000 |  |  |
| Cc1sc2c(c1C)C(c1ccc(CNC(=O)N3CCC(c4ccc(C(=O)N[C@H]5CC[C@H](Oc6ccc(C#N)c(Cl)c6)CC5)nn4)CC3)cc1)=N[C@@H](Cc1ncco1)c1nnc(C)n1-2 [I-228] | < 500 | < 500 |  |  | < 500 | > 3000 |  |  |
| Cc1sc2c(c1C)C(c1ccc(N3CCC(CNC(=O)c4ccc(C(=O)N[C@H]5CC[C@H](Oc6ccc(C#N)c(Cl)c6)CC5)nn4)CC3)cc1)=N[C@@H](Cc1ncco1)c1nnc(C)n1-2 [I-231] | 500 to 1500 |  | > 3000 |  |  |  | > 3000 | > 3000 |
| Cc1sc2c(c1C)C(c1ccc(N3CCC(CNC(=O)c4ccc(C(=O)N[C@H]5CC[C@H](Oc6ccc(C#N)c(Cl)c6)CC5)nn4)CC3)cc1)=N[C@@H](Cc1ncco1)c1nnc(C)n1-2 [I-232] |  |  | < 500 | < 500 |  |  | < 500 | 500 to 1500 |
| Cc1sc2c(c1C)C(c1ccc(CNC(=O)CNC(=O)c3ccc(C(=O)N[C@H]4CC[C@H](Oc5ccc(C#N)c(Cl)c5)CC4)nn3)cc1)=N[C@@H](Cc1ncco1)c1nnc(C)n1-2 [I-233] | 500 to 1500 | < 500 |  |  | < 500 | > 3000 |  |  |
| Cc1sc2c(c1C)C(c1ccc(OC3CC4(CCN(c5ccc(C(=O)N[C@H]6CC[C@H](Oc7ccc(C#N)c(Cl)c7)CC6)nn5)CC4)C3)cc1)=N[C@](C)(C(C)c1ncco1)c1nnc(C)n1-2 (stereo partly drawn) [I-237] | < 500 | > 3000 |  |  | < 500 | > 3000 |  |  |
| Cc1sc2c(c1C)C(c1ccc(C(=O)N3CCN(C(=O)c4ccc(C(=O)N[C@H]5CC[C@H](Oc6ccc(C#N)c(Cl)c6)CC5)nn4)CC3)cc1)=N[C@@H](Cc1ncco1)c1nnc(C)n1-2 [I-238] | > 3000 | > 3000 |  |  | > 3000 | > 3000 |  |  |
| Cc1sc2c(c1C)C(c1ccc(C(=O)N3CCN(C(=O)c4ccc(C(=O)N[C@H]5CC[C@H](Oc6ccc(C#N)c(Cl)c6)CC5)nn4)CC3)cc1)=N[C@H](Cc1ncco1)c1nnc(C)n1-2 [I-239] | > 3000 | 1500 to 3000 |  |  | < 500 | > 3000 |  |  |
| Cc1sc2c(c1C)C(c1ccc(C(=O)N3CCC(Cc4ccc(C(=O)N[C@H]5CC[C@H](Oc6ccc(C#N)c(Cl)c6)CC5)nn4)CC3)cc1)=N[C@@H](Cc1ncco1)c1nnc(C)n1-2 [I-240] | 500 to 1500 | > 3000 |  |  | < 500 | > 3000 |  |  |
| Cc1sc2c(c1C)C(c1ccc(C(=O)N3CCC(Cc4ccc(C(=O)N[C@H]5CC[C@H](Oc6ccc(C#N)c(Cl)c6)CC5)nn4)CC3)cc1)=N[C@H](Cc1ncco1)c1nnc(C)n1-2 [I-241] | 500 to 1500 | 500 to 1500 |  |  | < 500 | 500 to 1500 |  |  |
| Cc1sc2c(c1C)C(c1ccc(CNC(=O)CN(C)c3ccc(C(=O)N[C@H]4CC[C@H](Oc5ccc(C#N)c(Cl)c5)CC4)nn3)cc1)=N[C@@H](Cc1ncco1)c1nnc(C)n1-2 [I-243] | 500 to 1500 | 500 to 1500 |  |  | < 500 | 500 to 1500 |  |  |
| Cc1sc2c(c1C)C(c1ccc(OC3CC4(CCN(c5ccc(C(=O)N[C@H]6CC[C@H](Oc7ccc(C#N)c(Cl)c7)CC6)nn5)CC4)C3)cc1)=N[C@@H](CC(C)(C)O)c1nnc(C)n1-2 [I-245] | > 3000 | < 500 |  |  | < 500 | > 3000 |  |  |

Source: patent US20260109707A1, “HETEROBIFUNCTIONAL COMPOUNDS AND METHODS OF TREATING DISEASE” (Halda Therapeutics OpCo. Inc., priority 2022, published 2026)
